Data published in patent US20120094007A1, “METHOD FOR THE IMMOBILIZATION OF CATIONIC ACTIVE INGREDIENTS ON SURFACES” (BASF SE, priority 2010, published 2012).
Where no end group is shown, it is not given here.

Experiments:
[1] = system: Staphylococcus epidermidis DSM1798; test: static biofilm assay on antimicrobially finished silicone surfaces (cfu/cm^2); type: cell-based; details: silicone surface, conjugates adsorbed alone from 10 mg/ml (P18 equivalents) in PBS; after washing
Method: (§1) The effect of the antimicrobial finishing of the investigated surfaces was determined by means of a […] biofilm assay. For this, the surfaces to be tested were cut into round disks which fit into the holes of 24-well microtiter plates. In order to prevent the surfaces from slipping during the assay, the surfaces were immobilized on the bottom of the microtiter plates with the help of glass joint grease. The formation of biofilms was carried out starting from a preculture. For this, 20 ml of the standard commercial TSBY medium (Difco Laboratories, MI, USA) were inoculated with the help of a steady-state overnight culture of Staphylococcus epidermidis DSM1798, Escherichia coli DSM 5698, Proteus mirabilis DSM 4479 or Escherichia coli BL21 (DE3) with an optical density of 0.1. The preculture was incubated for 2 to 4 hours with agitation (at 200 rpm) and 37° C. until an optical density of from 2 to 3 was reached. In order to start the biofilm assay, the preculture was diluted to an optical density of 0.0004 in 5% TSBY in saline (0.9% NaCl) (ca. 10^5 cfu/ml). 1 ml of this was placed onto the surfaces in the 24-well plate and then incubated at 37° C. with gentle vibration at 50 rpm (revolutions per minute), so that a biofilm could form on the surface. The biofilm on the surfaces was analyzed after one hour (1 h) and after 24 hours (24 h) (and optionally 5 hours). For this, the planktonic cells were removed. The surfaces were then removed from the microtiter plate and briefly washed in sodium chloride solution, saline (0.9% NaCl). The adherent cells in the biofilm were then detached from the surface by means of an ultrasound treatment. For this purpose, the surfaces were transferred to a Falcon tube (50 ml volume) with 2 ml of saline and subjected to ultrasound for five minutes in an ultrasound water bath. The resulting bacterial suspension was diluted and plated out on TSBY agar plates. After 18 hours at 37, the resulting colonies were counted and back-calculated to the number of cells on the surface.

Escherichia coli = test: as above; type: cell-based; details: silicone surface, after intensive washing
Method: as §1

In the case of “PEI-P18 conjugates: polyethyleneimine (25 KDa) activated with SMCC and reacted with P18cys (KWKLFKKIPKFLHLAKKFC; SEQ ID NO: 27) (also: conjugated to polyethyleneimine (25 kDa) via SMCC)”, the “formation of a biofilm due to S. epidermidis” value [1] is reported as “able to prevent the formation of a biofilm”, the “biofilm formation by E. coli” value (Escherichia coli; conjugates adsorbed alone from 10 mg/ml (P18 equivalents) in PBS) is reported as “not retained on the surface so strongly that after intensive washing enough active ingredient is present to prevent biofilm formation” and the “biofilm formation by E. coli” value (Escherichia coli; two-step method: hydrophobin A coating (0.5 mg/ml), then conjugates 10 mg/ml (P18 equivalents) in PBS) is reported as “effective even after intensive washing”.
